This is an account of results in patent publication US12558400B2, “Method of treatment of soft tissue sarcoma with a peptide comrpising a PCNA interacting motif” (THERAPIM PTY LTD, priority 2020, dated 2026).

Where no end group is shown, it is not given here.

Data set [1] relates to patients with advanced solid tumors. The data set is described as follows: Phase I safety and tolerability study of ATX-101 (studies ATX101-01 and -02). The data set is classed as in vivo. How it is done: A Phase I, open-label, single arm, safety and tolerability study was conducted (study ATX101-01) which evaluated escalating dose cohorts of ATX-101 (SEQ ID NO: 914) in patients with advanced solid tumors. The study was designed to systematically assess safety and tolerability, and to identify the Maximum Tolerated Dose (MTD) and recommended Phase II dose for ATX-101. Pharmacokinetics and preliminary efficacy (anti-tumor activity) were also assessed.
If at the end of the 6-week Phase I study (study ATX101-01) the patient's tumor didn't show signs of progression, treatment could be continued in a long-term follow-up study (study ATX101-02) until disease progression or other reasons for treatment discontinuation, e.g. withdrawal of consent.
Four dose levels (20, 35, 45 and 60 mg/m^2 of body surface area calculated based on the height and weight of patients) of intravenous ATX-101 (net peptide, excluding the mass of the salt component) were tested in the Phase I study (study ATX101-01). ATX-101 was administered via IV infusion over at least 1 hour either using a constant infusion rate or an adaptable infusion rate scheme starting with 5 mg/hr and increasing the infusion flow rate every 30 minutes, as outlined in the infusion rate table below (Table 1). […] Doses of 45 and 60 mg/m^2 were administered in 500 mL.
Treatment was administered weekly in cycles of 21-day duration, with a single IV infusion of ATX-101 on Day 1, 8 and 15 of each cycle. Dosing of patients occurred weekly for up to two cycles (i.e. 2×21 days=6 weeks).
Following the initial 6 weeks of treatment in the Phase I study (study ATX101-01), patients could continue the treatment in the long-term follow-up study (study ATX101-02). These patients, that received the same dose regimen as in study −01, were treated for up to 15.6 months.
Safety: Incidence, severity, and duration of treatment-emergent adverse events (TEAEs) and treatment related TEAEs were assessed according to Common Terminology Criteria for Adverse Events (CTCAE) v4.03.

The nature of data set [2]: Solubility of the peptide drug substance. The note with it: water and aqueous media; hydrochloride salt. The data set is classed as physicochemical. The source says:
The product was available as a hydrochloride salt (chloride counter-ion is ionically bound to the basic side chains of the peptide; 18 mol/mol peptide, theoretically; Molecular formula: C158H285N71O29S, 18 HCl; Relative molecular mass: […]. Free base: 3673.3).

Take “Ac-MDRWLVKWKKKRKIRRRRRRRRRRR (N-terminus assumed) [ATX-101]”: the treatment related deaths entry in data set [1] (22 patients, weekly IV infusion, all dose levels (20-60 mg/m^2)) is given as “No treatment related deaths”. Besides, the “course of infusion-related reactions after repeated doses” value in data set [1] (in vivo) was “did not worsen”. In data set [1] (in vivo, iv), the “Dose Limiting Toxicities (DLTs)” value was “no Dose Limiting Toxicities”; the “infusion-related reactions (IRR) Grade 1 or 2, proportion of patients” value turned out to be 73%; the “treatment discontinuation due to treatment related toxicity” value is reported as “no treatment discontinuation due to treatment related toxicity”; the “treatment related serious adverse event or severe adverse event” value is “no treatment related serious adverse event or severe adverse event”. The solubility entry in data set [2] is “freely soluble”.
